Common to all, as to assay: relative viability (nuclei count vs DMSO), 5 days (fraction); higher = more cells survive
Compound in experiment [1]: CC(C)N(CCCNC(=O)Nc1ccc(C(C)(C)C)cc1)C[C@H]1O[C@@H](n2ccc3c(N)ncnc32)[C@H](O)[C@@H]1O + O=C(c1cc(Cc2n[nH]c(=O)c3ccccc23)ccc1F)N1CCN(C(=O)C2CC2)CC1 [Olaparib] (partner 8 µM)
The method, boiled down: (§1)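 The day after seeding in 1536-well plates, lung cancer cell lines were treated by pin tool with a single drug, or with a fixed anchor-drug dose together with five library-drug doses (not always all listed) in √10 steps. After 5 days, a combined fix-and-stain solution (final 0.05% Triton X-100, 1% formaldehyde, 1 ug/ml Hoechst) was added. Nuclei counted on 4× images gave relative viability as treated counts over vehicle counts, reported as the median of duplicate plates.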

Compound in experiment [2]: CC(C)=CC[C@@H](O)C1=CC(=O)c2c(O)ccc(O)c2C1=O [Shikonin] + CCNC(=O)c1noc(-c2cc(C(C)C)c(O)cc2O)c1-c1ccc(CN2CCOCC2)cc1 [Luminespib] (partner 0.01 µM)
The method, boiled down: as §1

Compound in experiment [3]: CC(C)N(CCCNC(=O)Nc1ccc(C(C)(C)C)cc1)C[C@H]1O[C@@H](n2ccc3c(N)ncnc32)[C@H](O)[C@@H]1O + N=C(N)NC(=N)NCCc1ccccc1 [Phenformin] (partner 250 µM)
The method, boiled down: as §1

Compound in experiment [4]: CC(C)N(CCCNC(=O)Nc1ccc(C(C)(C)C)cc1)C[C@H]1O[C@@H](n2ccc3c(N)ncnc32)[C@H](O)[C@@H]1O + CC(=O)c1c(C)c2cnc(Nc3ccc(N4CCNCC4)cn3)nc2n(C2CCCC2)c1=O [Palbociclib] (partner 0.5 µM)
The method, boiled down: as §1

For the cell line UMC-11, the relative viability in experiment [1] (first compound 0.08 µM) stood at 0.407; in experiment [1] (first compound 0.253 µM) it was 0.447; in experiment [1] (first compound 0.8 µM), 0.378; in experiment [1] (first compound 2.53 µM) it was 0.327; in experiment [1] (first compound 8 µM), 0.323; in experiment [2] (first compound 0.01 µM), 0.997. Further, the relative viability turned out to be 1.05 in experiment [2] (first compound 0.1 µM); 0.986 in experiment [2] (first compound 0.3162 µM); 0.996 in experiment [2] (first compound 1 µM); 0.321 in experiment [3] (first compound 0.08 µM); 0.302 in experiment [3] (first compound 0.253 µM); 0.296 in experiment [3] (first compound 0.8 µM). Moreover, the relative viability is 0.349 in experiment [3] (first compound 2.53 µM); 0.322 in experiment [3] (first compound 8 µM); 0.294 in experiment [4] (first compound 0.08 µM); 0.316 in experiment [4] (first compound 0.253 µM); 0.304 in experiment [4] (first compound 0.8 µM); 0.323 in experiment [4] (first compound 2.53 µM). The relative viability in experiment [4] (first compound 8 µM) came out at 0.28.

The record behind these values is the supplement of paper PMC10307832.
